Measurements as given in ChEMBL document CHEMBL4251700, “Novel Staphyloxanthin Inhibitors with Improved Potency against Multidrug Resistant Staphylococcus aureus” (ACS Med Chem Lett, 2018).
Where a chain is given by its changes, count along the chain named. The source made the active and inactive calls. No cut-off for these calls is given here.

Columns and labels:
[1] = molecular target: T1, 4,4'-diapophytoene desaturase (4,4'-diaponeurosporene-forming) (Staphylococcus aureus (strain Newman), UniProt O07855); experiment: Inhibition of Staphylococcus aureus Newman […]-tagged CrtN expressed in Escherichia coli BL21(DE3))/pET28a::CrtN assessed as reduction in staphyloxanthin levels using diapophytoene as substrate after overnight incubation; design: species or system Staphylococcus aureus subsp. aureus str. Newman
T1 sequence (O07855 whole entry): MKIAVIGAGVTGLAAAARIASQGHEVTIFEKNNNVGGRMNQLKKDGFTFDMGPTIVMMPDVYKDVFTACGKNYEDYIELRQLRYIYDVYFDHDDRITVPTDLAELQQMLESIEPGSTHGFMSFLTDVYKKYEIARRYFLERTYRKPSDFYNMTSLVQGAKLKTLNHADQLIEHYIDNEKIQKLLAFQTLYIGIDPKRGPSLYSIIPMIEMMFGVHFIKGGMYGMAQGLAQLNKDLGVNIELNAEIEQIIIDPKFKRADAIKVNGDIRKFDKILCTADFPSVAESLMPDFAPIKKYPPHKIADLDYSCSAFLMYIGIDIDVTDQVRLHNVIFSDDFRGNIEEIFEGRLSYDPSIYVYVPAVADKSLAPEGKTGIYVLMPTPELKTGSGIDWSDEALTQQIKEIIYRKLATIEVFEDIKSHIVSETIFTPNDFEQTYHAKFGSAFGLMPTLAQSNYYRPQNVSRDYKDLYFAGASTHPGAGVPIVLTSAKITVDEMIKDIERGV

[2] = molecular target: T2, 4,4'-diapophytoene desaturase (4,4'-diaponeurosporene-forming) (Staphylococcus aureus (strain Mu50 / ATCC 700699), UniProt Q99R76); experiment: Inhibition of CrtN in vancomycin-intermediate Staphylococcus aureus Mu50 assessed as reduction in staphyloxanthin levels after 48 hrs by spectrophotometric method-based pigment inhibition assay; design: species or system Staphylococcus aureus subsp. aureus Mu50
T2 sequence (Q99R76 whole entry): T1 sequence (O07855 whole entry)

[3] = molecular target: T3, 4,4'-diapophytoene desaturase (4,4'-diaponeurosporene-forming) (Staphylococcus aureus (strain MW2), UniProt Q8NUQ6); experiment: Inhibition of CrtN in methicillin-resistant Staphylococcus aureus LAC USA300 assessed as reduction in staphyloxanthin levels after 48 hrs by spectrophotometric method-based pigment inhibition assay; design: species or system Staphylococcus aureus subsp. aureus USA300
T3 sequence (Q8NUQ6 whole entry): T1 sequence (O07855 whole entry) with R500Q

[4] = molecular target: Voltage-gated inwardly rectifying potassium channel KCNH2 (Homo sapiens, UniProt Q12809); experiment: Inhibition of recombinant human ERG expressed in CHO cells at -80 mV holding potential measured after 3 minutes by automated whole cell patch clamp Qpatch method; format: cell-based
[5] = Solubility of the compound in water at 10 mg measured after 24 hrs by HPLC method; format: physicochemical
Staphylococcus aureus [6] = experiment: Growth inhibition of Staphylococcus aureus Newman at 0.2 mM incubated overnight measured at 30 mins interval; format: organism-based; settings: 0.5 h, 200 µM
Staphylococcus aureus [7] = experiment: Growth inhibition of methicillin-resistant Staphylococcus aureus USA300 LAC at 0.2 mM incubated overnight measured at 30 mins interval; format: organism-based; settings: 0.5 h, 200 µM
Trichophyton rubrum = experiment: Antifungal activity against Trichophyton rubrum after 7 days by broth microdilution method; format: functional, organism-based
Trichophyton verrucosum = experiment: Antifungal activity against Trichophyton verrucosum after 7 days; format: functional, organism-based
[8] = test system: Trichophyton mentagrophytes; experiment: Antifungal activity against Trichophyton mentagrophytes after 7 days; format: functional, organism-based
[9] = molecular target: T4, 4,4'-diapophytoene desaturase (4,4'-diaponeurosporene-forming) (Staphylococcus aureus (strain Newman)) (UniProt O07855); experiment: Inhibition of CrtN in Staphylococcus aureus Newman assessed as H2O2-induced bacterial death by measuring reduction in bacterial survival at 1 uM pretreated for 24 hrs followed by H2O2 addition measured after 30 mins by serial dilution method; settings: Staphylococcus aureus subsp. aureus str. Newman
T4 sequence (whole entry): T1 sequence (O07855 whole entry)

[10] = molecular target: T5, 4,4'-diapophytoene desaturase (4,4'-diaponeurosporene-forming) (Staphylococcus aureus (strain Mu50 / ATCC 700699)) (UniProt Q99R76); experiment: Inhibition of CrtN in Staphylococcus aureus Mu50 assessed as H2O2-induced bacterial death by measuring reduction in bacterial survival at 1 uM preincubated for 24 hrs followed by H2O2 addition measured after 30 mins by serial dilution method; settings: Staphylococcus aureus subsp. aureus Mu50
T5 sequence (whole entry): T1 sequence (O07855 whole entry)

Staphylococcus aureus [11] = experiment: Induction of sensitization to immune clearance towards Staphylococcus aureus USA300 LAC infected in human whole blood assessed as bacterial killing by measuring bacterial survival after 6 hrs by serial dilution method relative to control; format: functional
Staphylococcus aureus [12] = experiment: Induction of sensitization to immune clearance towards Staphylococcus aureus USA400 MW2 infected in human whole blood assessed as bacterial killing by measuring bacterial survival after 6 hrs by serial dilution method relative to control; format: functional
Staphylococcus aureus [13] = experiment: Antibacterial activity against Staphylococcus aureus Newman infected in BALB/c mouse assessed as reduction of bacterial burden in liver at 0.4 mg, ip bid administered at 12 hrs prior to bacterial infection dosed at 12 intervals for 4.5 days relative to control; format: functional; design: scale not given: the % may be the effect or the level left
Staphylococcus aureus [14] = experiment: Antibacterial activity against vancomycin-intermediate Staphylococcus aureus Mu50 infected in BALB/c mouse assessed as reduction of bacterial burden in liver at 0.1 mg, ip bid for 3.5 days administered 6 hrs post bacterial infection measured 84 hrs post infection; format: functional, organism-based
Staphylococcus aureus [15] = experiment: Antibacterial activity against vancomycin-intermediate Staphylococcus aureus Mu50 infected in BALB/c mouse assessed as reduction of bacterial burden in liver at 0.4 mg, ip bid for 3.5 days administered 6 hrs post bacterial infection measured 84 hrs post infection; format: functional, organism-based
Staphylococcus aureus [16] = experiment: Antibacterial activity against vancomycin-intermediate Staphylococcus aureus Mu50 infected in BALB/c mouse assessed as reduction of bacterial burden in liver at 0.1 mg, ip bid administered at 12 hrs prior to bacterial infection dosed at 12 intervals for 4.5 days; format: functional, organism-based
Staphylococcus aureus [17] = experiment: Antibacterial activity against linezolid-resistant Staphylococcus aureus NRS271 infected in BALB/c mouse assessed as reduction of bacterial burden in liver at 0.1 mg, ip bid administered at 12 hrs prior to bacterial infection dosed at 12 intervals for 4.5 days; format: functional, organism-based
Staphylococcus aureus [18] = experiment: Antibacterial activity against linezolid-resistant Staphylococcus aureus NRS271 infected in BALB/c mouse assessed as reduction of bacterial burden in liver at 0.4 mg, ip bid administered at 12 hrs prior to bacterial infection dosed at 12 intervals for 4.5 days; format: functional, organism-based
Staphylococcus aureus [19] = experiment: Antibacterial activity against linezolid-resistant Staphylococcus aureus NRS271 infected in BALB/c mouse assessed as reduction of bacterial burden in heart at 0.4 mg, ip bid for 3.5 days administered 6 hrs post bacterial infection measured 84 hrs post infection; format: functional; design: scale not given: the % may be the effect or the level left

Sequence of Voltage-gated inwardly rectifying potassium channel KCNH2 (Q12809 whole entry): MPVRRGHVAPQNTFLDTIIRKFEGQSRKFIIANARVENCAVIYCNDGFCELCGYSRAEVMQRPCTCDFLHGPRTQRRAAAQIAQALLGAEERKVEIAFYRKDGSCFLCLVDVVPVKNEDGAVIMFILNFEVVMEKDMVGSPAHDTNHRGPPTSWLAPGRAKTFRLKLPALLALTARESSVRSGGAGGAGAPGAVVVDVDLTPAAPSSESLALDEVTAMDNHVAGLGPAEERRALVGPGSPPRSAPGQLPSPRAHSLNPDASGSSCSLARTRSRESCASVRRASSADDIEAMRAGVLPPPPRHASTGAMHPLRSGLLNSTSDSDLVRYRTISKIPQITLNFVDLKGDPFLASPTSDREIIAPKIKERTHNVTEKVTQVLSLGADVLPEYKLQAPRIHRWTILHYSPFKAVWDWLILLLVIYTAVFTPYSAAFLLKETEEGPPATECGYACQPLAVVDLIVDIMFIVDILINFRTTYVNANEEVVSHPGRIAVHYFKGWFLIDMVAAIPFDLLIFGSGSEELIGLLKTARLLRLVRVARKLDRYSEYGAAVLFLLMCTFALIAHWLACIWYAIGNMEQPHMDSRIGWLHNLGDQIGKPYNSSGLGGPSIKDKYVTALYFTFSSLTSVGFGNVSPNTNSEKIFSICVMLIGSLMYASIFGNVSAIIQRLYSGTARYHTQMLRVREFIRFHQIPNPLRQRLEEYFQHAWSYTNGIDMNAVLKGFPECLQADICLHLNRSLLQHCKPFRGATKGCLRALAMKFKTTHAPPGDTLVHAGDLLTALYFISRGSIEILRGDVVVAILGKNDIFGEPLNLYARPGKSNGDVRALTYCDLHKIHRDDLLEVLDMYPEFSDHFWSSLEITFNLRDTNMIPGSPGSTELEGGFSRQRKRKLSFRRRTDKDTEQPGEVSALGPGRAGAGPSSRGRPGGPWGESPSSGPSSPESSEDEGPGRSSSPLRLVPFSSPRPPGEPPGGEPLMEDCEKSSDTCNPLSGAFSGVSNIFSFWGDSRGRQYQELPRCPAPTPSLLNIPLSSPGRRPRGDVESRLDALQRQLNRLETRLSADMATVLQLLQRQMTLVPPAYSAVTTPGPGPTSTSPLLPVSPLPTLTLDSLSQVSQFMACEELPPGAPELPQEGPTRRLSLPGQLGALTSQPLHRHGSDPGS

CN(C/C=C/C=C/c1ccc(C(F)(F)F)cc1)Cc1ccc2c(c1)OCCO2.Cl
IC50 [1]: 270 nM
IC50 [2]: < 0.1 nM
IC50 [3]: 5.5 nM
IC50 [4]: 12100 nM
solubility at 24 h [5]: 7900 µg/mL
growth inhibition (GI) (Staphylococcus aureus [6]): Non-Toxic
growth inhibition (GI) (Staphylococcus aureus [7]): Non-Toxic
Activity (Trichophyton rubrum): inactive
Activity (Trichophyton verrucosum): inactive
Activity [8]: inactive
inhibition [9]: Active
inhibition [10]: Active
Survival (Staphylococcus aureus [11]): <0.5%
Survival (Staphylococcus aureus [12]): <0.5%
Activity (Staphylococcus aureus [13]): 86.7%
Activity (Staphylococcus aureus [14]): Active
Activity (Staphylococcus aureus [15]): Active
Activity (Staphylococcus aureus [16]): Active
Activity (Staphylococcus aureus [17]): Active
Activity (Staphylococcus aureus [18]): Active
Activity (Staphylococcus aureus [19]): >90%
